Consider two compounds from patent publication US8053585B2, “Protecting group for carboxylic acids that can be photolyzed by visible light” (Cornell Research Foundation, Inc., priority 2006, dated 2011).

One test deals with GluR6 glutamate receptor. In words: Laser-pulse photolysis of DECM-caged glutamate on HEK 293 cells. The format is cell-based. To be noted: 2 mM caged compound, −60 mV, pH 7.4, 22° C. The protocol: The cells were used for electrophysiological experiments between 24 and 72 h after each passage. Whole-cell currents evoked by glutamate or glycine (100 μM) were recorded using the whole-cell configuration (Hamill et al., “Improved Patch-Clamp Techniques for High-Resolution Current Recording From Cells and Cell-Free Membrane Patches,” Pfluegers Arch 391:85-100 (1981), which is hereby incorporated by reference in its entirety) at room temperature, −60 mV, and pH 7.4. The experiments using DECM-caged glutamate were carried out in the absence or presence of 2 mM DECM-caged glutamate (FIG. 5A) or 1 mM 7-N,N-diethylamino-4-hydroxymethylcoumarin (2) (FIG. 5B). Alternatively, the experiments using DECM-caged glycine were carried out in the absence or presence of 1 mM DECM-caged-glycine (FIG. 10). The solution in the recording pipet contained 120 mM CsCl, 10 mM EGTA, and 10 mM HEPES, adjusted to pH 7.4. The HEK cell bath solution contained 150 mM NaCl, 1 mM CaCl2, 10 mM HEPES, pH 7.4. The resistance of the recording electrode filled with buffer solution was typically 3-5 MΩ and the series resistance was 5-6 MΩ. […]
The laser light produced by the Exalite (Exiton Inc., Dayton, Ohio) 404 dye (≧400 nm) was coupled into an optical fiber (300 μm internal diameter), which delivered the light to the cell. […] Data were analyzed with Microcal Origin3.5 software (Microcal, Northampton, Mass.).

Test [1] deals with T1, α1-subunit of the human glycine receptor (Homo sapiens, UniProt P23415).
T1 construct: expressed in transfected cells; host or cells: HEK 293 cells, transiently transfected (Polyfect), co-transfected with GFP plasmid as marker; cDNA from Prof; H. Betz
T1 sequence (P23415 29-457): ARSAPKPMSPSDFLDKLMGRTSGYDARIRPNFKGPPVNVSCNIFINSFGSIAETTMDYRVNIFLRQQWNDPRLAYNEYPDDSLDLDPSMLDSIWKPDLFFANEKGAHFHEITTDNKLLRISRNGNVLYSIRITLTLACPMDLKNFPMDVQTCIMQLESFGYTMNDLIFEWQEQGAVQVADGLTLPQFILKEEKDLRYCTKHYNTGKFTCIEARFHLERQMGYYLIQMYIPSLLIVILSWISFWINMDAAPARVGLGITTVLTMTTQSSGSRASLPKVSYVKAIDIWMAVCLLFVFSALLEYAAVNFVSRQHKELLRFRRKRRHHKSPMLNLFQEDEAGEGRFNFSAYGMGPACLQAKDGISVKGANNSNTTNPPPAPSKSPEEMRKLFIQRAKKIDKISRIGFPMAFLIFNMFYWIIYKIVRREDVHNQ
In words: Flash lamp photolysis of DECM-caged glycine on HEK 293 cells. The format is cell-based. Conditions: 1 mM caged compound. The protocol: The cells were used for electrophysiological experiments between 24 and 72 h after each passage. Whole-cell currents evoked by glutamate or glycine (100 μM) were recorded using the whole-cell configuration (Hamill et al., “Improved Patch-Clamp Techniques for High-Resolution Current Recording From Cells and Cell-Free Membrane Patches,” Pfluegers Arch 391:85-100 (1981), which is hereby incorporated by reference in its entirety) at room temperature, −60 mV, and pH 7.4. The experiments using DECM-caged glutamate were carried out in the absence or presence of 2 mM DECM-caged glutamate (FIG. 5A) or 1 mM 7-N,N-diethylamino-4-hydroxymethylcoumarin (2) (FIG. 5B). Alternatively, the experiments using DECM-caged glycine were carried out in the absence or presence of 1 mM DECM-caged-glycine (FIG. 10). The solution in the recording pipet contained 120 mM CsCl, 10 mM EGTA, and 10 mM HEPES, adjusted to pH 7.4. The HEK cell bath solution contained 150 mM NaCl, 1 mM CaCl2, 10 mM HEPES, pH 7.4. The resistance of the recording electrode filled with buffer solution was typically 3-5 MΩ and the series resistance was 5-6 MΩ. The cells were held at a constant transmembrane voltage of −60 mV and room temperature (22° C.). Whole-cell currents were amplified by using an Axopatch 200B (Axon Instruments, Foster City, Calif.) amplifier and filtered at 1-5 kHz by using a […], low-pass, Bessel (Dagan Corporation, Minneapolis, Minn.) filter incorporated in the amplifier. The filtered signal was digitized by a Digidata 1322A (Axon Instruments, Union City, Calif.) or a Labmaster DMA 100 KHz digitizing board (Scientific Solutions, Mentor, Ohio) controlled by pCLAMP9 software (Axon Instruments).
The light produced by the Rapp (Rapp OptoElectronics, Hamburg, Germany) xenon flash lamp (SP-20) was coupled into an optical fiber (600 μm internal diameter), which delivered the light to the cell. The concentration of DECM-caged-glycine used was 1 mM for the results in FIG. 11. Typical light energies were 150-250 μJ per pulse. […] Data were analyzed with Microcal Origin3.5 software (Microcal, Northampton, Mass.).

With `CCN(CC)c1ccc2c(COC(=O)CCC(N)C(=O)O)cc(=O)oc2c1` (centres unmarked) [DECM-caged glutamate, (7-N,N-Diethylaminocoumarin-4-yl)-methyl-glutamate-trifluoroacetate], in the test with GluR6 glutamate receptor, the “I∞, current at t=∞” value was −1590 pA and the “kobs, apparent pseudo-first-order rate constant of the current rise” value was found to be 765 ± 14 s⁻¹.
Turning to `CCN(CC)c1ccc2c(COC(=O)CN)cc(=O)oc2c1` [DECM-caged glycine, (7-N,N-Diethylaminocoumarin-4-yl)-methyl-glycine-trifluoroacetate], the “concentration of liberated glycine” value in test [1] (flash-lamp light pulse, 250 μJ) stood at 60 µM. Further, in test [1] (−60 mV, pH 7.4, 22° C.), the “I∞, current at t=∞” value is −4950±57 pA and the “kobs, apparent pseudo first-order rate constant of the current rise” value was 125 ± 16 s⁻¹.
